# Laboratory results published in PubChem BioAssay AID330 (DTP/NCI, 2004).
# Several values for one entry are separate records, joined by “and”; a condition that tells them apart may be missing. Equal values may be shown once. Toxic doses and inconclusive results are not listed.
# Test system: P388 leukemia ip, CD2F1 mice, survival T/C
# Experiment: NCI In Vivo Anticancer Drug Screen. Data for tumor model P388 Leukemia (intraperitoneal) in CD2F1 (CDF1) mice
# Settings: endpoint: median survival time, higher = longer survival
# Summary of the method: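 Mice carrying the transplanted tumor received test compound or vehicle. Survival was recorded in each group, and the value is the treated-group measurement divided by that of the vehicle-treated control group.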
# [1] = dose: 60.0 mg/kg/injection, schedule: Q01DX005 (ip), vehicle: Klucel (hydroxypropylcellulose) (HPC)
# [2] = dose: 120.0 mg/kg/injection, schedule: Q01DX005 (ip), vehicle: Klucel (hydroxypropylcellulose) (HPC)
# [3] = dose: 240.0 mg/kg/injection, schedule: Q01DX005 (ip), vehicle: Klucel (hydroxypropylcellulose) (HPC)
# [4] = dose: 12.5 mg/kg/injection, schedule: Q01DX005 (ip), vehicle: Klucel (hydroxypropylcellulose) (HPC)
# [5] = dose: 50.0 mg/kg/injection, schedule: Q01DX005 (ip), vehicle: Klucel (hydroxypropylcellulose) (HPC)
# [6] = dose: 100.0 mg/kg/injection, schedule: Q01DX009 (ip), vehicle: saline with Tween-80
# [7] = dose: 200.0 mg/kg/injection, schedule: Q01DX009 (ip), vehicle: saline with Tween-80
# [8] = dose: 12.5 mg/kg/injection, schedule: Q01DX005 (ip), vehicle: saline with Tween-80
# [9] = dose: 50.0 mg/kg/injection, schedule: Q01DX005 (ip), vehicle: saline with Tween-80
# [10] = dose: 100.0 mg/kg/injection, schedule: Q01DX005 (ip), vehicle: saline with Tween-80
# [11] = dose: 200.0 mg/kg/injection, schedule: Q01DX005 (ip), vehicle: saline with Tween-80
compound,measurement,setting,value
Cc1ccc(NC(=O)OCCN(C)C)cc1Cl,T/C,"dose: 60.0 mg/kg/injection, schedule: Q01DX005 (ip), vehicle: Klucel + Tween-80",101 % of control
same,T/C,"dose: 120.0 mg/kg/injection, schedule: Q01DX005 (ip), vehicle: Klucel + Tween-80",99 % of control
same,T/C,"dose: 240.0 mg/kg/injection, schedule: Q01DX005 (ip), vehicle: Klucel + Tween-80",91 % of control
CCCCCCC1C/C(=C/N(C)C)C(=O)O1 (configuration not stated),T/C,[1],92 % of control
same,T/C,[2],104 % of control
same,T/C,[3],92 % of control
O=C(O)/C=C/c1ccc([N+](=O)[O-])o1,T/C,"dose: 25.0 mg/kg/injection, schedule: Q01DX009 (ip), vehicle: Klucel (hydroxypropylcellulose) (HPC)",107 % of control and 117 % of control
same,T/C,"dose: 50.0 mg/kg/injection, schedule: Q01DX009 (ip), vehicle: Klucel (hydroxypropylcellulose) (HPC)",120 % of control
BrC1c2ccccc2-c2nc3ccccc3nc21 (configuration not stated),T/C,[4],112 % of control
same,T/C,"dose: 25.0 mg/kg/injection, schedule: Q01DX005 (ip), vehicle: Klucel (hydroxypropylcellulose) (HPC)",99 % of control
same,T/C,[5],103 % of control and 115 % of control
CC(NNC(=S)N1CCC(c2ccccc2)CC1)c1ccc2ccccc2n1 (configuration not stated),T/C,[5],97 % of control
same,T/C,"dose: 100.0 mg/kg/injection, schedule: Q01DX005 (ip), vehicle: Klucel (hydroxypropylcellulose) (HPC)",105 % of control
Nc1nc2c(C(=O)N3CCCC3)nnn2c2cccc(Cl)c12,T/C,"dose: 60.0 mg/kg/injection, schedule: Q01DX005 (ip), vehicle: saline with Tween-80",107 % of control
same,T/C,"dose: 120.0 mg/kg/injection, schedule: Q01DX005 (ip), vehicle: saline with Tween-80",106 % of control
same,T/C,"dose: 240.0 mg/kg/injection, schedule: Q01DX005 (ip), vehicle: saline with Tween-80",106 % of control
COC(=O)c1nc(N)nc(C(=O)OC)c1C(=O)c1ccco1,T/C,[1],101 % of control
same,T/C,[2],103 % of control
CCCSCCCCSCCC,T/C,[6],100 % of control
same,T/C,[7],108 % of control
Cc1cc2nc(CC(=O)c3ccccc3)c(CC(=O)c3ccccc3)nc2cc1C,T/C,"dose: 7.5 mg/kg/injection, schedule: Q01DX005 (ip), vehicle: saline with Tween-80",98 % of control
same,T/C,"dose: 15.0 mg/kg/injection, schedule: Q01DX005 (ip), vehicle: saline with Tween-80",95 % of control
NC(=S)N/N=C/c1cn(-c2ccc([N+](=O)[O-])cc2)cn1,T/C,"dose: 25.0 mg/kg/injection, schedule: Q04DX003 (ip), vehicle: Klucel (hydroxypropylcellulose) (HPC)",86 % of control
same,T/C,"dose: 50.0 mg/kg/injection, schedule: Q04DX003 (ip), vehicle: Klucel (hydroxypropylcellulose) (HPC)",86 % of control
same,T/C,"dose: 100.0 mg/kg/injection, schedule: Q04DX003 (ip), vehicle: Klucel (hydroxypropylcellulose) (HPC)",94 % of control
CCN(CC)CCCC(C)Nc1nccc2cccc(Cl)c12 (configuration not stated),T/C,"dose: 50.0 mg/kg/injection, schedule: Q01DX005 (ip), vehicle: saline",104 % of control
same,T/C,"dose: 100.0 mg/kg/injection, schedule: Q01DX005 (ip), vehicle: saline",104 % of control
C(=N\Nc1c2c(nc3ccccc13)CCCC2)/c1ccc2c(c1)OCO2,T/C,"dose: 3.12 mg/kg/injection, schedule: Q01DX005 (ip), vehicle: Klucel (hydroxypropylcellulose) (HPC)",109 % of control
same,T/C,"dose: 6.25 mg/kg/injection, schedule: Q01DX005 (ip), vehicle: Klucel (hydroxypropylcellulose) (HPC)",95 % of control
same,T/C,[4],90 % of control and 95 % of control
CC1C2=C(CN(C)CC2)c2ccccc21 (configuration not stated),T/C,[8],100 % of control
same,T/C,"dose: 25.0 mg/kg/injection, schedule: Q01DX005 (ip), vehicle: saline with Tween-80",96 % of control
same,T/C,[9],105 % of control
O=P(OCC(F)(F)F)(OCC(F)(F)F)c1ccccc1,T/C,[9],102 % of control
same,T/C,[10],101 % of control
same,T/C,[11],96 % of control
COc1cccc2c1C(=O)c1c(O)c3c(c(O)c1C2=O)C[C@@](O)(/C(C)=N\NC(=O)CO)C[C@@H]3OC1CC(N)C(O)C(C)O1 (some centres not stated),T/C,"dose: 0.29 mg/kg/injection, schedule: Q04DX003 (ip), vehicle: saline",118 % of control
same,T/C,"dose: 0.78 mg/kg/injection, schedule: Q01DX009 (ip), vehicle: water",153 % of control
same,T/C,"dose: 1.0 mg/kg/injection, schedule: Q01DX009 (ip), vehicle: saline",152 % of control
same,T/C,"dose: 1.0 mg/kg/injection, schedule: Q04DX003 (ip), vehicle: saline",150 % of control
same,T/C,"dose: 1.32 mg/kg/injection, schedule: Q04DX003 (ip), vehicle: saline",150 % of control
same,T/C,"dose: 1.5 mg/kg/injection, schedule: Q01DX009 (ip), vehicle: saline",154 % of control
same,T/C,"dose: 1.56 mg/kg/injection, schedule: Q01DX009 (ip), vehicle: water",160 % of control
same,T/C,"dose: 2.0 mg/kg/injection, schedule: Q01DX009 (ip), vehicle: water",166 % of control
same,T/C,"dose: 2.0 mg/kg/injection, schedule: Q04DX003 (ip), vehicle: saline",154 % of control
same,T/C,"dose: 2.25 mg/kg/injection, schedule: Q01DX009 (ip), vehicle: saline",189 % of control
same,T/C,"dose: 2.5 mg/kg/injection, schedule: Q04DX003 (ip), vehicle: water",119 % of control
same,T/C,"dose: 3.0 mg/kg/injection, schedule: Q04DX003 (ip), vehicle: saline",177 % of control
same,T/C,"dose: 3.13 mg/kg/injection, schedule: Q01DX009 (ip), vehicle: water",180 % of control
same,T/C,"dose: 4.0 mg/kg/injection, schedule: Q01DX009 (ip), vehicle: water",192 % of control
same,T/C,"dose: 5.0 mg/kg/injection, schedule: Q04DX003 (ip), vehicle: water",119 % of control
same,T/C,"dose: 6.25 mg/kg/injection, schedule: Q01DX009 (ip), vehicle: water",108 % of control
same,T/C,"dose: 40.0 mg/kg/injection, schedule: Q04DX003 (ip), vehicle: water",90 % of control
same,T/C,"dose: 80.0 mg/kg/injection, schedule: Q04DX003 (ip), vehicle: water",90 % of control and 96 % of control
O=C1NN=CC1CCCN=Cc1cc(Br)ccc1O (configuration not stated),T/C,"dose: 50.0 mg/kg/injection, schedule: Q01DX009 (ip), vehicle: saline with Tween-80",96 % of control
same,T/C,[6],104 % of control
same,T/C,[7],114 % of control
COC(=O)CS(=O)(=O)CS(=O)(=O)CC(=O)OC,T/C,"dose: 50.0 mg/kg/injection, schedule: Q01DX009 (ip), vehicle: saline",107 % of control
same,T/C,"dose: 100.0 mg/kg/injection, schedule: Q01DX009 (ip), vehicle: saline",100 % of control
same,T/C,"dose: 200.0 mg/kg/injection, schedule: Q01DX009 (ip), vehicle: saline",97 % of control
COc1ccc2ccccc2c1/C=[N+](/[O-])c1ccccc1,T/C,[1],109 % of control
same,T/C,[2],110 % of control
same,T/C,[3],112 % of control
C[CH2][Sn]([CH2]C)([CH2]C)[O]C(=O)CO,T/C,"dose: 1.56 mg/kg/injection, schedule: Q01DX009 (ip), vehicle: saline with Tween-80",115 % of control
same,T/C,"dose: 3.12 mg/kg/injection, schedule: Q01DX009 (ip), vehicle: saline with Tween-80",122 % of control
O=S(=O)(O)CC(O)CN(CCO)CCO (configuration not stated),T/C,"dose: 60.0 mg/kg/injection, schedule: Q01DX005 (ip), vehicle: saline",108 % of control
same,T/C,"dose: 120.0 mg/kg/injection, schedule: Q01DX005 (ip), vehicle: saline",102 % of control
same,T/C,"dose: 240.0 mg/kg/injection, schedule: Q01DX005 (ip), vehicle: saline",100 % of control
CC(=O)NC1CCCCC1[Se](=O)c1ccccc1 (configuration not stated),T/C,[9],108 % of control
same,T/C,[10],100 % of control
same,T/C,[11],109 % of control
BrC1C2CCC3OC3CCC12 (configuration not stated),T/C,"dose: 100.0 mg/kg/injection, schedule: Q04DX003 (ip), vehicle: saline with Tween-80",101 % of control
same,T/C,"dose: 200.0 mg/kg/injection, schedule: Q04DX003 (ip), vehicle: saline with Tween-80",92 % of control
same,T/C,"dose: 400.0 mg/kg/injection, schedule: Q04DX003 (ip), vehicle: saline with Tween-80",97 % of control
CC(NNC(=S)N(C)C1CCCCC1)c1cc2ccccc2cn1 (configuration not stated),T/C,"dose: 6.25 mg/kg/injection, schedule: Q01DX005 (ip), vehicle: saline with Tween-80",107 % of control
same,T/C,[8],120 % of control
same,T/C,[9],151 % of control and 159 % of control
